# Reference: publication PMC7534330, “UHPLC-MS/MS method for pharmacokinetic and bioavailability determination of five bioactive components in raw and various processed products of Polygala tenuifolia in rat plasma” (Pharmaceutical Biology, 2020)
# What was measured:
# [1] = Pharmacokinetics of five components in rat plasma after oral administration of RPT, LPT and HPT extracts (UHPLC-MS/MS); conditions: male, SD, in vivo, 1.9 g/kg, rat plasma, mean ± SD; for AUC(0-t): n = 6, read-out: AUC0-t; for AUC(0-inf): n = 6, read-out: AUC0-∞; for Cmax: n = 6, read-out: Cmax; for MRT last: n = 6, read-out: MRT0-t; for Tmax: n = 6, read-out: Tmax; for half-life: n = 6, read-out: t1/2 (converted)
# Description: (§1) A Thermo Hypersil Gold C18 column (3.0 × 100 mm, i.d.; 3 μm) was used for chromatographic separation. An aqueous 10 mM ammonium acetate solution (A) and acetonitrile (B) were selected as the mobile phase components. The optimal gradient program involved the following steps: 5% B (0–1 min), changing to 85% B (1–3.5 min), 85% B (3.5–4.0 min), changing to 5% B (4.0–4.1 min) and 5% B (4.1–5.0 min). The flow rate was set to 0.4 mL/min, the autosampler was maintained at 4 °C and the injection volume was 5 μL.
# (§2) UHPLC-MS/MS was conducted by an Applied Biosystems (AB) Sciex Exion LC system (Foster City, CA) connected to a 6500 + triple quad tandem mass spectrometer with an electrospray ionization source. All detection and quantifications were carried out in positive multiple reaction monitoring (MRM) mode. The optimized parameters were programmed as follows: ion source temperature, 500 °C; curtain gas pressure, 30 kPa; ion source gas 1 pressure, 55 kPa; ion source gas 2 pressure, 55 kPa; and ion spray voltage, […]. The chemical structures and ion mass spectra of targeted compounds are shown in Figure 1. The precursor ion and product ion were m/z 517.1 → 174.9 for A5, m/z 547.0 → 204.9 for A6, m/z 753.2 → 205.2 for DSS, m/z 681.3 → 443.3 for TFSA, m/z 236.8 → 103.2 for TMCA and m/z 136.9 → 92.9 for IS. All data were acquired by using AB Sciex Analyst software (version 1.6.3).
# (§3) After thawing the frozen blood samples at room temperature, a 100 μL aliquot of plasma was spiked with 50 μL of the IS working solution in 2 mL EP tubes, and 750 μL of methanol was added into each of the tubes. Then, these tubes were mixed on a multi-tube Vortexer for 0.5 min before centrifugation at 11,800×g for 10 min. Finally, 200 μL of the obtained supernatant was transferred to a fresh autosampler vial, and then 5 μL of the sample was injected for analysis.
# Male SD rats were randomly divided into four groups (n = 6 in each group), including the RPT group, LPT group, HPT group and control group. All oral administration samples were mixed with 0.5% CMC-Na (w/v) and then given to rats at a dose equivalent to 1.9 g/kg of RPT extract. The control group was orally treatment with equal volume of 0.5% CMC-Na solution. After a single administration, all blood samples were collected from the orbital vein into heparinized centrifuge tubes before administration (0 h) and at 0.083, 0.17, 0.25, 0.5, 0.75, 1, 1.5, 2, 3, 5, 8 and 12 h after administration and then centrifuged at 4 °C and 11,800×g for 10 min. The separated supernatant samples were preserved at −80 °C until they were measured.
# (§4) The elementary pharmacokinetic parameters of plasma samples were analyzed by DAS 2.0 pharmacokinetic software. One-way analysis of variance (ANOVA) was used for statistical comparison for pharmacokinetic and interaction studies. A p-value < 0.05 indicated a significant difference. The main parameters considered were as follows: AUC0–∞ (the area under the blood concentration-time curve from zero to infinity initial plasma concentration), MRT (the mean residence time), Cmax (peak plasma concentration) and Tmax (time to reach Cmax for oral dose), t1/2 (elimination half-life) (He et al. [2015]). The absolute bioavailability (F) was evaluated as follows: F(%)=(AUCoral×Dosei.v.)/(AUCi.v.×Doseoral)×100%
# [2] = Pharmacokinetics and absolute bioavailability of five compounds after oral and i.v. administration (UHPLC-MS/MS); assay type: in vivo; conditions: rat; for MRT last: read-out: MRT0-t; for half-life: read-out: t1/2 (converted); for AUCΔ0-t (dose-normalized) / AUCΔ0-∞ (dose-normalized) / CΔmax (dose-normalized): dose-normalized value
# Description: as §1, §2, §3
# The SD rats were randomly divided into oral and i.v. groups for A5, A6, DSS, TFSA and TMCA administration (n = 6 in each group). The oral doses of A5, A6, DSS, TFSA and TMCA groups were 7.40, 11.60, 16.00, 50.00 and 3.11 mg/kg, respectively, and the corresponding i.v. doses were 0.74, 1.16, 1.60, 5.00 and 0.31 mg/kg, respectively. Blood samples were collected from the suborbital vein into heparinized tubes before and 0, 0.083, 0.17, 0.25, 0.5, 1, 2, 3, 5 and 8 h after administration. The treatment method of blood samples was the same as that mentioned above.
# as §4
# [3] = oral HPT extract equivalent to 1.9 g/kg of RPT extract
# [4] = oral LPT extract equivalent to 1.9 g/kg of RPT extract
# [5] = SD, in vivo, iv, i.v. administration, A5 0.74, A6 1.16, DSS 1.60, TFSA 5.00, TMCA 0.31 mg/kg, n = 6
# [6] = SD, in vivo, oral administration of pure compound, A5 7.40, A6 11.60, DSS 16.00, TFSA 50.00, TMCA 3.11 mg/kg, n = 6
smiles,measurement,setting,value
"COc1cc(C=CC(=O)O)cc(OC)c1OC [TMCA, 3,4,5-trimethoxycinnamic acid]",AUC(0-t),[1]; [3],124 ± 41.3 ng·h/mL
same,AUC(0-inf),[1]; [3],184 ± 137 ng·h/mL
same,Cmax,[1]; [3],63.2 ± 14.2 ng/mL
same,MRT last,[1]; [3],251 ± 54.6 min
same,Tmax,[1]; [3],4.2 ± 1.2 min
same,half-life,[1]; [3],224 ± 140 min
same,AUC(0-t),[1]; [4],135 ± 33.4 ng·h/mL
same,AUC(0-inf),[1]; [4],173 ± 40.4 ng·h/mL
same,Cmax,[1]; [4],80.7 ± 11.1 ng/mL
same,MRT last,[1]; [4],214 ± 15 min
same,Tmax,[1]; [4],6 ± 2.4 min
same,half-life,[1]; [4],409 ± 109 min
same,AUC(0-t),[1]; oral RPT extract 1.9 g/kg,91.7 ± 29.1 ng·h/mL
same,AUC(0-inf),[1]; oral RPT extract 1.9 g/kg,132 ± 33.4 ng·h/mL
same,Cmax,[1]; oral RPT extract 1.9 g/kg,38.8 ± 13.8 ng/mL
same,MRT last,[1]; oral RPT extract 1.9 g/kg,262 ± 31.8 min
same,Tmax,[1]; oral RPT extract 1.9 g/kg,7.8 ± 3 min
same,half-life,[1]; oral RPT extract 1.9 g/kg,416 ± 178 min
same,AUC(0-inf),[2]; [5],226 ± 61.2 ng·h/mL
same,AUC(0-t),[2]; [5],225 ± 60.9 ng·h/mL
same,Cmax,[2]; [5],1470 ± 238 ng/mL
same,MRT last,[2]; [5],15 ± 3.6 min
same,half-life,[2]; [5],37.2 ± 7.8 min
same,AUC(0-inf),[2]; [6],971 ± 59.8 ng·h/mL
same,AUC(0-t),[2]; [6],968 ± 58.4 ng·h/mL
same,Cmax,[2]; [6],1110 ± 90.5 ng/mL
same,MRT last,[2]; [6],40.8 ± 1.8 min
same,Tmax,"[2]; SD, in vivo, oral administration of pure compound, A5 7.40, A6 11.60, DSS 16.00, TFSA 50.00, TMCA 3.11 mg/kg, n = 6, read-out: Tmax",15 min
same,half-life,[2]; [6],39 ± 1.2 min
same,AUCΔ0-t (dose-normalized),[2]; i.v. administration,725.52 ± 196.42 ng·h/mL
same,AUCΔ0-∞ (dose-normalized),[2]; i.v. administration,730.65 ± 197.45 ng·h/mL
same,CΔmax (dose-normalized),[2]; i.v. administration,4750.32 ± 768.32 ng/mL
same,AUCΔ0-t (dose-normalized),[2]; oral administration,311.40 ± 18.78 ng·h/mL
same,AUCΔ0-∞ (dose-normalized),[2]; oral administration,312.32 ± 19.23 ng·h/mL
same,CΔmax (dose-normalized),[2]; oral administration,356.33 ± 29.10 ng/mL
same,"F, absolute bioavailability",[2]; oral vs i.v. (i.v. dose 1/10 of oral dose),42.91 % of dose
